Calls of active or inactive are those of the source. The calls are words filed in the database; no cut-off is given here.
Columns and labels:
THP-1 [1] = experiment: Antiinflammatory activity in human THP-1 cells assessed as reduction in LPS-induced TNF alpha secretion at 10 uM incubated for 12 hrs measured by ELISA; assay type: functional, cell-based
THP-1 [2] = experiment: Antiinflammatory activity in human THP-1 cells assessed as reduction in LPS-induced IL6 secretion at 10 uM incubated for 12 hrs measured by ELISA; assay type: functional, cell-based
[3] = target: T1, AMP-activated protein kinase, AMPK (Homo sapiens) (UniProt P54646+O43741+P54619+Q9UGJ0+Q9Y478+Q13131+Q9UGI9); experiment: Activation of AMPK in human Huh-7 cells assessed as increase in AMPK phosphorylation at Thr172 residue at 10 uM measured after 12 hrs by Western blot analysis; assay type: cell-based; conditions: filed as activator
[4] = target: T1, AMP-activated protein kinase, AMPK (Homo sapiens); experiment: Activation of AMPK in human Huh-7 cells assessed as increase in acetyl-CoA carboxylase phosphorylation at Ser79 residue at 10 uM measured by Western blot analysis; assay type: cell-based; conditions: filed as activator, time hrs <=12, TDE = time-dependent effect
[5] = target: T1, AMP-activated protein kinase, AMPK (Homo sapiens); experiment: Activation of AMPK in human HepG2 cells assessed as increase in acetyl-CoA carboxylase phosphorylation at Ser79 measured upto 12 hrs by Western blot analysis; assay type: cell-based; conditions: filed as activator, dose microM <=20, time hrs <=12
[6] = target: T1, AMP-activated protein kinase, AMPK (Homo sapiens); experiment: Activation of AMPK in human Huh-7 cells assessed as increase in AMPK phosphorylation at Thr172 measured upto 12 hrs by Western blot analysis; assay type: cell-based; conditions: filed as activator, dose microM <=20, time hrs <=12
[7] = target: T1, AMP-activated protein kinase, AMPK (Homo sapiens); experiment: Activation of AMPK in human HepG2 cells assessed as increase in acetyl-CoA carboxylase phosphorylation at Ser79 residue at 10 uM measured by Western blot analysis; assay type: cell-based; conditions: filed as activator, time hrs <=12, TDE = time-dependent effect
THP-1 [8] = experiment: Cytotoxicity against human THP-1 cells assessed as reduction in cell viability at 1 to 10 uM; assay type: cell-based; conditions: thp-1, 10 µM
[9] = target: T1, AMP-activated protein kinase, AMPK (Homo sapiens); experiment: Activation of AMPK in human Huh-7 cells assessed as increase in acetyl-CoA carboxylase phosphorylation at Ser79 measured upto 12 hrs by Western blot analysis; assay type: cell-based; conditions: filed as activator, dose microM <=20, time hrs <=12
[10] = target: T1, AMP-activated protein kinase, AMPK (Homo sapiens); experiment: Activation of AMPK in human HepG2 cells assessed as increase in AMPK phosphorylation at Thr172 residue at 10 uM measured by Western blot analysis; assay type: cell-based; conditions: filed as activator, time hrs <=12, TDE = time-dependent effect
[11] = target: T1, AMP-activated protein kinase, AMPK (Homo sapiens); experiment: Activation of AMPK in human Huh-7 cells assessed as increase in AMPK phosphorylation at Thr172 residue at 10 uM measured by Western blot analysis; assay type: cell-based; conditions: filed as activator, time hrs <=12, TDE = time-dependent effect
[12] = target: T1, AMP-activated protein kinase, AMPK (Homo sapiens); experiment: Activation of AMPK in human HepG2 cells assessed as increase in AMPK phosphorylation measured upto 12 hrs by Western blot analysis; assay type: cell-based; conditions: filed as activator, dose microM <=20, time hrs <=12
[13] = Metabolic stability in human liver microsomes assessed as intrinsic clearance in presence of NADPH by LC-MS analysis; assay type: ADME, Microsome; conditions: read-out: CLH
[14] = Metabolic stability in mouse liver microsomes assessed as half life in presence of NADPH by LC-MS analysis; assay type: ADME, Microsome
[15] = Metabolic stability in mouse liver microsomes assessed as intrinsic clearance in presence of NADPH by LC-MS analysis; assay type: ADME, Microsome; conditions: read-out: CLH
[16] = Metabolic stability in human liver microsomes assessed as half life in presence of NADPH by LC-MS analysis; assay type: ADME, Microsome

## CC1(C)CC[C@]2(C(=O)O)CC[C@]3(C)C(=C2C1)CC[C@@H]1[C@@]2(C)CC[C@H](O[C@@H]4OC[C@H](O)[C@H](O)[C@H]4O[C@@H]4O[C@H](CO)[C@@H](O)[C@H](O)[C@H]4O)C(C)(C)[C@@H]2CC[C@]13C
THP-1 [1]
  Activity: Active
THP-1 [2]
  Activity: Active

## CC1(C)[C@@H](O[C@H]2O[C@H](C(=O)O)[C@@H](O)[C@H](O)[C@H]2O[C@@H]2O[C@H](C(=O)O)[C@@H](O)[C@H](O)[C@H]2O)CC[C@]2(C)[C@H]3C(=O)C=C4[C@@H]5C[C@@](C)(C(=O)O)CC[C@]5(C)CC[C@@]4(C)[C@]3(C)CC[C@@H]12
[3]
  Activity: Active

## C=C(C)[C@@H]1CC[C@]2(C(=O)O)CC[C@]3(C)[C@H](CC[C@@H]4[C@@]5(C)CC[C@H](O)C(C)(C)[C@@H]5CC[C@]43C)[C@@H]12
[3]
  Activity: Active

## CC1(C)CC[C@]2(C(=O)O)CC[C@]3(C)C(=C2C1)CC[C@@H]1[C@@]2(C)CC[C@H](O)C(C)(C)[C@@H]2CC[C@]13C
[4]
  Activity: Tde
[3]
  Activity: Active
[5]
  Activity: Dose-dependent effect
[6]
  Activity: Dose-dependent effect
[7]
  Activity: Tde
THP-1 [8]
  Activity: Non-Toxic
[9]
  Activity: Dose-dependent effect
[10]
  Activity: Tde
[11]
  Activity: Tde
[12]
  Activity: Dose-dependent effect

## C[C@@H]1CC[C@]2(C(=O)O)CC[C@]3(C)C(=CC[C@@H]4[C@@]5(C)CC[C@H](O[C@@H]6OC[C@H](O)[C@H](O)[C@H]6O)C(C)(C)[C@@H]5CC[C@]43C)[C@@H]2[C@]1(C)O
[3]
  Activity: Active

## CC1(C)CC[C@]2(C(=O)O)CC[C@]3(C)C(=CC[C@@H]4[C@@]5(C)CC[C@H](O[C@@H]6O[C@H](C(=O)O)[C@@H](O)[C@H](O[C@@H]7OC[C@@H](O)[C@H](O)[C@H]7O)[C@H]6O)C(C)(C)[C@@H]5CC[C@]43C)[C@@H]2C1
[3]
  Activity: Active

## C[C@H]1[C@H](C)CC[C@]2(C(=O)O[C@@H]3O[C@H](CO[C@@H]4O[C@H](CO)[C@@H](O[C@@H]5O[C@@H](C)[C@H](O)[C@@H](O)[C@H]5O)[C@H](O)[C@H]4O)[C@@H](O)[C@H](O)[C@H]3O)CC[C@]3(C)C(=CC[C@@H]4[C@@]5(C)C[C@@H](O)[C@H](O)[C@@](C)(CO)[C@@H]5[C@H](O)C[C@]43C)[C@H]12
[3]
  Activity: Active

## C[C@@H]1CC[C@]2(C(=O)O[C@@H]3O[C@H](CO)[C@@H](O)[C@H](O)[C@H]3O)CC[C@]3(C)C(=CC[C@@H]4[C@@]5(C)CC[C@H](O[C@@H]6OC[C@H](O)[C@H](O)[C@H]6O)C(C)(C)[C@@H]5CC[C@]43C)[C@@H]2[C@]1(C)O
[3]
  Activity: Active

## CC1(C)CC[C@]2(C(=O)O[C@@H]3O[C@H](CO)[C@@H](O)[C@H](O)[C@H]3O)CC[C@]3(C)C(=CC[C@@H]4[C@@]5(C)CC[C@H](O[C@@H]6O[C@H](C(=O)O)[C@@H](O)[C@H](O)[C@H]6O[C@@H]6O[C@H](CO)[C@@H](O)[C@H](O)[C@H]6O)C(C)(C)[C@@H]5CC[C@]43C)[C@@H]2C1
[3]
  Activity: Active

## CC1(C)CC[C@]2(C(=O)O)CC[C@]3(C)C(=CC[C@@H]4[C@@]5(C)C[C@@H](O)[C@H](O)C(C)(C)[C@@H]5CC[C@]43C)[C@@H]2C1
[3]
  Activity: Active

## O=C(c1ccc(F)cc1)C1CCN(CCn2c(=O)[nH]c3ccccc3c2=O)CC1 [KETANSERIN]
[13]
  CLint scaled: 41 mL/min/kg
[14]
  half-life: 19.3 min
[15]
  CLint scaled: 283 mL/min/kg
[16]
  half-life: 42.4 min

## C[C@H]1[C@H](C)CC[C@]2(C(=O)O)CC[C@]3(C)C(=CC[C@@H]4[C@@]5(C)C[C@@H](O)[C@H](O)[C@@](C)(CO)[C@@H]5[C@H](O)C[C@]43C)[C@H]12
[3]
  Activity: Active

Reference: ChEMBL document CHEMBL4732083, “Synthesis and anti-inflammatory activity of saponin derivatives of δ-oleanolic acid” (Eur J Med Chem, 2021)
